The values below come from US12215104B2, “Anti-biofilm compounds” (UNIVERSITY OF LOUISVILLE RESEARCH FOUNDATION, INC., priority 2018, dated 2025).

Series [1] deals with P. gingivalis adherence to S. gordonii. Nature of the series: Inhibition of P. gingivalis adherence to S. gordonii in two-species biofilm model. It is filed as cell-based, P. gingivalis ATCC33277; S. gordonii DL-1. The text has this: (§1) To assess the functional activity of the click products, compounds 28-57 (Groups I and II) and 90-124 (Group III) were examined for inhibition of P. gingivalis adherence to S. gordonii using an established biofilm model system as described in the Section 4.2.1 [41]. For each compound tested, an IC50 value for adherence inhibition was approximated after quantifying the ratio of green to red fluorescence and these values are shown in Tables 2, 3 and 4. Compounds were classified as strong (IC50<10 μM), moderate (IC50=10-20 μM) or weak (IC50>20 μM) inhibitors of adherence. Twelve compounds were identified as strong inhibitors and an additional ten compounds were classified as moderate inhibitors. […] Compounds 54, 56, 93, 95, 100, 102, 103, and 115 were also tested to determine if they affect the growth of P. gingivalis or S. gordonii. […] The sulfoxide group does impart asymmetry to the molecule; however, the mixture of enantiomers, assuming the peracid oxidation was racemic, was not separated and bioassayed. The Group III active compounds (95-117) all contain the 1,3,5-trisubstituted-2,4,6-triazine modeled after the Katzenellenbogen rendering of an active motif whereby the key leucine residues which mimicked the VXXLL receptor box lie in a triangular arrangement. While the original iteration of the Katzenellenbogen VXXLL mimics were the hydrophobic 3,5-disubstituted-di-N-alkyamino-triazine motifs, we introduced the hydrophobic 2- and 4-(fluorophenyl)amino groups at positions 3 and 5 of the 2,4,6-triazine (See Compounds 102, 111, 115, 122).
(§2) P. gingivalis ATCC33277 was grown in reduced trypticase soy broth (Difco) supplemented with 0.5 percent yeast extract, 1 μg/mL menadione, and 5 μg/mL hemin. Twenty five milliliters of medium were reduced for 24 h under anaerobic conditions by equilibrating in an atmosphere consisting of 10% CO2, 10% H2, and 80% N2. Following equilibration, P. gingivalis was inoculated in the media and grown for 48 h at 37° C. under anaerobic conditions. S. gordonii DL-1 (1) was cultured aerobically without shaking in brain heart infusion (BHI) broth supplemented with 1 percent yeast extract for 16 hours at 37° C. For some compounds that inhibited P. gingivalis adherence to S. gordonii, we determined their affect the planktonic growth of P. gingivalis and S. gordonii. Broth cultures were grown as described above and compared to cultures grown in the absence of the compound. Cell density of each culture was determined by measuring the optical density at 600 nm (O.D.600 nm) after 24 h of growth. The percent growth inhibition/stimulation was calculated using the following equation: [(O.D.600 nm of the control/O.D.600 nm of the culture grown in the presence of compound)−1]×100.
Two species biofilms were formed essentially as previously described. To prepare bacterial cells for biofilm culture, 10 ml of an overnight S. gordonii culture was centrifuged at 5600 rpm for 5 min and the cell pellet was suspended in 1 mL sterile PBS. Subsequently, 20 μL of 5 mg/ml hexidium iodide (Molecular Probes) was added to the cell suspension and incubated for 15 min with gentle shaking at room temperature in the dark. The labeled cells were centrifuged as described above, washed with phosphate buffered saline (10 mM Na2HPO4, […], […], and 2.7 mM KCl, pH 7.2; [PBS]) and the cell pellet was suspended in PBS at a final O.D.600 nm of 0.8. Similarly, 10 mL of a 48 h culture of P. gingivalis was centrifuged at 5600 rpm for 15 min, the cell pellet was suspended in 1 mL PBS and 20 μl of 5(6)-carboxyfluorescein N-hydroxysuccinimide ester (4 mg/ml, Molecular Probes, Inc.) was added. After incubation for 30 min with gentle shaking at room temperature in the dark, the suspension was centrifuged and washed as described above and suspended in PBS at a final O.D.600 nm of 0.4. […]

A further series relates to P. gingivalis. Nature of the series: Effect on planktonic growth of P. gingivalis. It is filed as cell-based, P. gingivalis ATCC33277. The following applies: incubated overnight in the presence of 40 μM compound.
Source text: as §1, §2

Another series deals with S. gordonii. Nature of the series: Effect on planktonic growth of S. gordonii. The following applies: incubated overnight in the presence of 40 μM compound. It counts as cell-based, S. gordonii DL-1.
Source text: as §1, §2

Series [2] has as its system pre-existing 3-species biofilm. As to the kind of experiment: Disruption of a pre-existing 3-species biofilm in vitro. It counts as cell-based. The conditions noted are these: 20 μM.
A further series deals with gingival keratinocytes. As to the kind of experiment: Induction of apoptosis in gingival keratinocytes. It counts as cell-based.
[3] abbreviates: Table 3, Group II click products, concentration reducing green to red fluorescence ratio by 50%, approximated.
Where [4] appears, read: read-out: IC50 for inhibition of adherence of P. gingivalis to S. gordonii.

Read-outs that look alike come from different tables or passages of the source.

Broadly, the IC50 is the concentration at which inhibition is half-maximal. On to `COc1ccccc1-c1cn(-c2ccc(S(=O)(=O)Cc3nc(-c4ccc(F)cc4)c(-c4ccc(F)cc4)o3)cc2)nn1` [Compound 54], for which, in series [1] (setting [3]), the IC50 was 21.2 µM. Besides, the “effect on growth of planktonic cultures of P. gingivalis” value (from here on “effect on growth … of P. gingivalis”) in the series on P. gingivalis was “No effect on growth”. In the series with S. gordonii, the “effect on growth of planktonic cultures of S. gordonii” value (from here on “effect on growth … of S. gordonii”) was “No effect on growth”.

For `O=S(=O)(Cc1nc(-c2ccc(Cl)cc2)c(-c2ccc(Cl)cc2)o1)c1ccc(-n2cc(-c3ccc(F)cc3)nn2)cc1` [Compound 56], the IC50 in series [1] (setting [3]) was found to be 6.3 µM. The “effect on growth … of P. gingivalis” value in the series on P. gingivalis was “No effect on growth”. Moreover, in the series with S. gordonii, the “effect on growth … of S. gordonii” value is “No effect on growth”.

For `CCN(CC)c1nc(-c2cn(-c3ccc(-c4nc(-c5ccc(F)cc5)c(-c5ccc(F)cc5)o4)cc3)nn2)nc(N(CC)CC)n1` [Compound 93], the IC50 in series [1] (Group III) worked out at 9.4 µM. In the series on P. gingivalis, the “effect on growth … of P. gingivalis” value is recorded as “No effect on growth”. Besides, in the series with S. gordonii, the “effect on growth … of S. gordonii” value is on record as “No effect on growth”.

For `CCN(CC)c1nc(-c2cn(-c3ccc(-c4nc(-c5ccc(Cl)cc5)c(-c5ccc(Cl)cc5)o4)cc3)nn2)nc(N(CC)CC)n1` [Compound 95], the figures for the IC50 in series [1] (Group III) and in series [1] (setting [4]) were 3.7 µM and 2.3 to 5.3 µM, respectively. Moreover, in the series on P. gingivalis, the “effect on growth … of P. gingivalis” value is listed as “No effect on growth”. In addition, in the series with S. gordonii, the “effect on growth … of S. gordonii” value is “No effect on growth”. The “disruption of pre-existing 3-species biofilm” value (“disruption” below) came to 16.47 in series [2] (time treated 1 h), 52.84 in series [2] (time treated 2 h) and 81 in series [2] (time treated 3 h). Also, the early apoptosis in the series on gingival keratinocytes (5 μM, gingival keratinocytes) was 5.02; in the series on gingival keratinocytes (20 μM, gingival keratinocytes), 4.89; in the series on gingival keratinocytes (40 μM, gingival keratinocytes), 3.80. Further, the late apoptosis in the series on gingival keratinocytes (5 μM, gingival keratinocytes) came out at 4.27; in the series with gingival keratinocytes (20 μM, gingival keratinocytes), 4.26; in the series on gingival keratinocytes (40 μM, gingival keratinocytes), 2.83. Moreover, the live cells was 88.50 in the series with gingival keratinocytes (5 μM, gingival keratinocytes); 88.35 in the series on gingival keratinocytes (20 μM, gingival keratinocytes); 91.75 in the series with gingival keratinocytes (40 μM, gingival keratinocytes).

Consider `Fc1ccccc1Nc1nc(Nc2ccccc2F)nc(-c2cn(-c3cccc(-c4nc(-c5ccccc5)c(-c5ccccc5)o4)c3)nn2)n1` [Compound 100], for which the “effect on growth … of P. gingivalis” value in the series on P. gingivalis is listed as “No effect on growth”. In addition, in the series with S. gordonii, the “effect on growth … of S. gordonii” value was “No effect on growth”.

With `Fc1ccc(-c2nc(-c3cccc(-n4cc(-c5nc(Nc6ccccc6F)nc(Nc6ccccc6F)n5)nn4)c3)oc2-c2ccc(F)cc2)cc1` [Compound 102], the IC50 in series [1] (Group III) was determined as 5 µM. Also, the “effect on growth … of P. gingivalis” value with P. gingivalis was “No effect on growth”. Further, in the series on S. gordonii, the “effect on growth … of S. gordonii” value is recorded as “No effect on growth”.

Compound `Fc1ccc(-c2nc(-c3ccc(-n4cc(-c5nc(Nc6ccccc6F)nc(Nc6ccccc6F)n5)nn4)cc3)oc2-c2ccc(F)cc2)cc1` [Compound 103] came in with an IC50 in series [1] (Group III) of 12.3 µM. Besides, the “effect on growth … of P. gingivalis” value in the series on P. gingivalis is on record as “No effect on growth”. The “effect on growth … of S. gordonii” value in the series with S. gordonii is reported as “No effect on growth”.

On to `Fc1ccc(Nc2nc(Nc3ccc(F)cc3)nc(-c3cn(-c4cccc(-c5nc(-c6ccccc6)c(-c6ccccc6)o5)c4)nn3)n2)cc1` [Compound 111], for which the IC50 in series [1] (Group III) was 4.3 µM; in series [1] (setting [4]), 2.3 to 5.3 µM. Moreover, the entries for the “disruption” value in series [2] (time treated 1 h), in series [2] (time treated 2 h) and in series [2] (time treated 3 h) were 0.62, 7.33 and 56.63, respectively. For the same compound, the early apoptosis turned out to be 4.96 in the series with gingival keratinocytes (5 μM, gingival keratinocytes); 5.06 in the series with gingival keratinocytes (20 μM, gingival keratinocytes); 5.60 in the series on gingival keratinocytes (60 μM, gingival keratinocytes). Moreover, the late apoptosis with gingival keratinocytes (5 μM, gingival keratinocytes) is 2.36; in the series on gingival keratinocytes (20 μM, gingival keratinocytes), 3.39; in the series with gingival keratinocytes (60 μM, gingival keratinocytes), 4.38. Further, the live cells with gingival keratinocytes (5 μM, gingival keratinocytes) is reported as 89.25; in the series on gingival keratinocytes (20 μM, gingival keratinocytes), 87.95; in the series with gingival keratinocytes (60 μM, gingival keratinocytes) it was 84.40.

The compound `Fc1ccc(Nc2nc(Nc3ccc(F)cc3)nc(-c3cn(-c4ccc(-c5nc(-c6ccccc6)c(-c6ccccc6)o5)cc4)nn3)n2)cc1` [Compound 112] showed an IC50 in series [1] (Group III) of more than 60 µM.

For `Fc1ccc(Nc2nc(Nc3ccc(F)cc3)nc(-c3cn(-c4ccccc4-c4nc(-c5ccc(F)cc5)c(-c5ccc(F)cc5)o4)nn3)n2)cc1` [Compound 113], the IC50 in series [1] (Group III) is 49.2 µM.

`Fc1ccc(Nc2nc(Nc3ccc(F)cc3)nc(-c3cn(-c4cccc(-c5nc(-c6ccc(F)cc6)c(-c6ccc(F)cc6)o5)c4)nn3)n2)cc1` [Compound 114] returned an IC50 in series [1] (Group III) of more than 60 µM.

In series [1] (Group III), `Fc1ccc(Nc2nc(Nc3ccc(F)cc3)nc(-c3cn(-c4ccccc4-c4nc(-c5ccc(Cl)cc5)c(-c5ccc(Cl)cc5)o4)nn3)n2)cc1` [Compound 116] showed an IC50 of more than 40 µM.

Regarding `Fc1ccc(Nc2nc(Nc3ccc(F)cc3)nc(-c3cn(-c4cccc(-c5nc(-c6ccc(Cl)cc6)c(-c6ccc(Cl)cc6)o5)c4)nn3)n2)cc1` [Compound 117], the IC50 in series [1] (Group III) was 27.8 µM; in series [1] (setting [4]), 2.3 to 5.3 µM.

The compound `Fc1ccc(Nc2nc(Nc3ccc(F)cc3)nc(-c3cn(-c4ccc(-c5nc(-c6ccc(Cl)cc6)c(-c6ccc(Cl)cc6)o5)cc4)nn3)n2)cc1` [Compound 118] returned an IC50 in series [1] (Group III) of 13.3 µM.

The compound `COc1ccc(-c2nc(-c3ccccc3-n3cc(-c4nc(Nc5ccc(F)cc5)nc(Nc5ccc(F)cc5)n4)nn3)oc2-c2ccc(OC)cc2)cc1` [Compound 119] had an IC50 in series [1] (Group III) of more than 60 µM.

In turn, `COc1ccc(-c2nc(-c3cccc(-n4cc(-c5nc(Nc6ccc(F)cc6)nc(Nc6ccc(F)cc6)n5)nn4)c3)oc2-c2ccc(OC)cc2)cc1` [Compound 120] displayed an IC50 in series [1] (Group III) of more than 60 µM.

In turn, `COc1ccc(-c2nc(-c3ccc(-n4cc(-c5nc(Nc6ccc(F)cc6)nc(Nc6ccc(F)cc6)n5)nn4)cc3)oc2-c2ccc(OC)cc2)cc1` [Compound 121] gave an IC50 in series [1] (Group III) of more than 60 µM.

`Fc1ccc(Nc2nc(Nc3ccc(F)cc3)nc(-c3cn(-c4ccccc4-c4nc(-c5ccco5)c(-c5ccco5)o4)nn3)n2)cc1` [Compound 122] showed an IC50 in series [1] (Group III) of 2.4 µM. Further, the “disruption” value in series [2] (time treated 1 h) came out at 0; in series [2] (time treated 2 h), 25.71; in series [2] (time treated 3 h), 68.82. The early apoptosis came out at 4.50 in the series on gingival keratinocytes (5 μM, gingival keratinocytes); 5.93 in the series on gingival keratinocytes (20 μM, gingival keratinocytes); 7.54 in the series with gingival keratinocytes (60 μM, gingival keratinocytes). For the same compound, the late apoptosis with gingival keratinocytes (5 μM, gingival keratinocytes) is 3.95; with gingival keratinocytes (20 μM, gingival keratinocytes), 2.92; in the series with gingival keratinocytes (60 μM, gingival keratinocytes), 4.59. The live cells is 88.30 with gingival keratinocytes (5 μM, gingival keratinocytes); 88.80 in the series with gingival keratinocytes (20 μM, gingival keratinocytes); 83.65 with gingival keratinocytes (60 μM, gingival keratinocytes).

Turning to `Fc1ccc(Nc2nc(Nc3ccc(F)cc3)nc(-c3cn(-c4cccc(-c5nc(-c6ccco6)c(-c6ccco6)o5)c4)nn3)n2)cc1` [Compound 123], in series [1] (Group III), half-maximal inhibition (IC50) required 8 µM.

Take `Fc1ccc(Nc2nc(Nc3ccc(F)cc3)nc(-c3cn(-c4ccc(-c5nc(-c6ccco6)c(-c6ccco6)o5)cc4)nn3)n2)cc1` [Compound 124]: in series [1] (Group III), half-maximal inhibition (IC50) required 7.8 µM.

In the case of `OO` [Compound H2O2, H2O2, reference compound], in the series with gingival keratinocytes (4 mM 1 h, positive control), the early apoptosis was 35.60, the late apoptosis worked out at 41.50 and the live cells stood at 11.30.
